# Assay results as given in patent US5663344A, “Method for the synthesis of huperzine A and analogs thereof and compounds useful therein” (Mayo Foundation for Medical Education and Research, priority 1994, dated 1997).
# Biological target: T1, acetylcholinesterase (Rattus norvegicus, UniProt P37136)
# T1 construct: synaptosome-rich fraction containing endogenous acetylcholinesterase enzyme; from tissue; host or cells: rat cerebral cortex, synaptosome-rich fraction (Whittaker's P2 fraction: synaptosomes and mitochondria)
# T1 sequence (P37136 32-614): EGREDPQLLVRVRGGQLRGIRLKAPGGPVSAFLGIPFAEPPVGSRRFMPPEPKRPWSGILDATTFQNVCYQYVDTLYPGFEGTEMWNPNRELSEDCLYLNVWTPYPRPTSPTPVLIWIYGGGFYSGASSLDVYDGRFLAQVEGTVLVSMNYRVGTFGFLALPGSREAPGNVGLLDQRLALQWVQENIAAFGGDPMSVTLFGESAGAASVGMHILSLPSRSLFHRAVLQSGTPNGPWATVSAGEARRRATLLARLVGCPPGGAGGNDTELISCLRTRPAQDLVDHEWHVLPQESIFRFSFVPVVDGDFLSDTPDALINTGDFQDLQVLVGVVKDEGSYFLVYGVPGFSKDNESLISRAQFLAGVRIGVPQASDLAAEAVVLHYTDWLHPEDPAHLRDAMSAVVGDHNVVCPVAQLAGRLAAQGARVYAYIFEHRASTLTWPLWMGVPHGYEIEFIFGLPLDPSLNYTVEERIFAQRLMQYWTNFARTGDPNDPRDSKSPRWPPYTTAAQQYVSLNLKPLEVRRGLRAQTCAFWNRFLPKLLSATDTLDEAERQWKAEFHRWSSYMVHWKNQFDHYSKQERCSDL
# Test: Inhibition of acetylcholinesterase in rat cortex synaptosome-rich fraction (hydrolysis of labelled acetylcholine)
# Format: biochemical
# Method: Rats were killed by decapitation and the brains were rapidly extirpated. The cortex was dissected out on ice according to the method of Glowinski and Iversen. […] Homogenates were centrifuged at 1000× g for 10 minutes to remove cell nuclei and heavy debris. […] A portion of this synaptosome-rich fraction was added in triplicate to ice-cold pH 7.4 Krebs-Ringer medium.
# Assay of acetylcholinesterase was carried out according to the method of Johnson and Russell. See C. […] Acetylcholine labelled in the acetate moiety was enzymatically hydrolyzed by incubation for 10 minutes at room temperature in the presence of the above synaptosome-rich fraction containing endogenous acetylcholinesterase enzyme. The reaction was terminated by addition of a "stopping mixture" containing chloroacetic acid (1.0M), sodium hydroxide (0.5M) and sodium cloride (2.0M) to the reaction vial. Toluene-based scintillation fluid was added to the vial, to extract the released labelled acetate into the organic phase. […] Thus, the sample can be counted directly in the same reaction vial, in which the hydrolysis of sample by acetylcholinesterase has occurred.
# Inhibition of cholinesterase activity was estimated, in triplicate, in the presence of a wide range of concentrations (10^-9 to 10^-3 M).
structure (smiles),measurement,setting,value
CCC=C1C2C=C(C)CC1(N)c1ccc(=O)[nH]c1C2 (stereo not drawn) [1-carbon Analog],inhibition of the cholinesterase enzyme (in words),compared with huperzine A,"inhibited the cholinesterase enzyme, but to a lesser extent than huperzine A"
same,IC50,"read-out: IC50 (extent of cholinesterase enzyme inhibition), rat cortex synaptosome-rich fraction, 10 min, room temperature, triplicate, 10^-9 to 10^-3 M",100 µM
same,IC50 /IC50 of Huperzine A,"relative to synthesized huperzine A, the smaller this number, the more potent the compound",166.6
